Some test systems named below: A549 NSCLC; ACHN renal; EKVX NSCLC; HL-60(TB) leukemia; HS 578T breast; KM12 colon; M14 melanoma; MALME-3M melanoma; MDA-N; NCI-H23 lung; NCI-H460 lung; NCI/ADR-RES ovarian; OVCAR-5 ovarian; RXF 393 renal; SF-539 CNS; SK-MEL-28 melanoma; SK-OV-3 ovarian; SNB-75 CNS; T-47D breast; UACC-257 melanoma.
Holding throughout (assay): DTP human tumour cell line panel, 48 h

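Each compound was tested at five concentrations against cells in 96-well plates for 48 hours. TGI: total growth inhibition.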 Bounds are passed on as bounds.

As usually defined, the TGI is the concentration at which net growth stops. Low readings indicate greater sensitivity of the cells, high ones lower sensitivity of the cells. `COC(=O)C1=C(OC(=O)/C=C/c2ccc(Cl)cc2)C(C(=O)OC)[C@@]2(O)[C@@H](C(=O)OC)[C@H](C)C[C@@H]1[C@@H]2C(=O)OC` (stereo not given in full): the TGI was above 100 µM with A549 NSCLC; 80 µM in the assay on ACHN renal; 71.8 µM in the assay on EKVX NSCLC; 36.1 µM with HL-60(TB) leukemia; 15.5 µM in the assay on HS 578T breast; above 100 µM in the assay with KM12 colon. In addition, the TGI with M14 melanoma was above 100 µM; with MALME-3M melanoma, 38.2 µM; with MDA-N, 29.5 µM; with NCI-H23 lung, 46 µM; in the assay with NCI-H460 lung it was above 100 µM; in the assay with NCI/ADR-RES ovarian, 64.6 µM. Moreover, the TGI in the assay with OVCAR-5 ovarian is 81.7 µM; in the assay on RXF 393 renal it was above 100 µM; in the assay on SF-539 CNS, above 100 µM; in the assay with SK-MEL-28 melanoma it was 88.7 µM; in the assay on SK-OV-3 ovarian, above 100 µM; in the assay with SNB-75 CNS it was above 100 µM. The TGI in the assay with T-47D breast and in the assay on UACC-257 melanoma was above 100 µM throughout.
